Measured values: patent US20240327359A1, “3-ISOXAZOLIDINONE COMPOUND, PREPARATION METHOD, HERBICIDAL COMPOSITION AND APPLICATION THEREOF” (QINGDAO KINGAGROOT CHEMICAL COMPOUND CO., LTD., priority 2021, published 2024)

Experiments:
Type in all cases: in vivo
[1] = test system: Abutilon theophrasti; experiment: Weeding effect in post-emergence stage; conditions: 720 g a.i./ha, 3 weeks after application
From the text: (§1) The activity level criteria for plant damage (i.e., growth control rate) are as follows:
(§2) The above growth control rates are fresh weight control rates.
(§3) Monocotyledonous and dicotyledonous weed seeds (Descurainia sophia, Capsella bursa-pastoris, Abutilon theophrasti, Galium aparine, Stellaria media, Lithospermum arvense, Rorippa indica, Alopecurus aequalis, Alopecurus japonicus, Eleusine indica, Beckmannia syzigachne, Sclerochloa dura, Phleum paniculatum, Veronica didyma, Bromus japonicus, Aegilops tauschii, Phalaris arundinacea, Amaranthus retroflexus, Chenopodiaceae, Commelina communis, Sonchus arvensis, Convolvulus arvensis, Cirsium setosum, Solanumnigrum, Acalypha australis, Digitaria sanguinalis, Echinochloa crusgalli, Setaria viridis, Setaria glauca, Leptochloa chinensis, Monochoria vaginalis, Sagittaria trifolia, Scirpus juncoides, Cyperus rotundus, Cyperus iria, Cyperus difformis, Fimbristylis, Portulaca oleracea, Xanthium sibiricum, Pharbitis nil, Conyza Canadensis, etc.) and major crop seeds (wheat, corn, rice, soybean, cotton, oilseed rape, millet, sorghum, potato, sesame, ricinus, etc.) were placed in plastic pots filled with soil, then covered with 0.5-2 cm of soil, allowed to grow in a good greenhouse environment. Two weeks after sowing, the test plants were treated in the 2-3 leaf stage. The tested compounds of the present invention were respectively dissolved in acetone, then added with Tween 80 and 1.5 liter/ha of emulsifiable concentrate of methyl oleate as synergist, diluted with a certain amount of water to obtain a solution of a certain concentration, and sprayed by a spray tower onto the plants. After the application, the plants were cultured for 3 weeks in the greenhouse, and then the experimental results of the weeding were recorded. The doses of the used compounds were 45, 90, 180, 360, 720 g a.i./ha, and the averages were obtained from three replicates.

[2] = test system: Alopecurus japonicus; experiment: Weeding effect in post-emergence stage; conditions: 720 g a.i./ha, 3 weeks after application
From the text: as §1, §2, §3

[3] = test system: Digitaria sanguinalis; experiment: Weeding effect in post-emergence stage; conditions: 720 g a.i./ha, 3 weeks after application
From the text: as §1, §2, §3

[4] = test system: Leptochloa chinensis; experiment: Weeding effect in post-emergence stage; conditions: 720 g a.i./ha, 3 weeks after application
From the text: as §1, §2, §3

[5] = test system: rice; experiment: Post-emergence stage, crop damage; conditions: 720 g a.i./ha, 3 weeks after application
From the text: as §1, §2, §3

[6] = test system: wheat; experiment: Post-emergence stage, crop damage; conditions: 720 g a.i./ha, 3 weeks after application
From the text: as §1, §2, §3

[7] = test system: corn; experiment: Pre-emergence stage, crop damage; conditions: 24 g a.i./mu, 2 weeks
From the text: as §1, §2
(§4) Monocotyledonous and dicotyledonous weed seeds (Descurainia sophia, Capsella bursa-pastoris, Abutilon theophrasti, Galium aparine, Stellaria media, Lithospermum arvense, Rorippa indica, Alopecurus aequalis, Alopecurus japonicus, Eleusine indica, Beckmannia syzigachne, Sclerochloa dura, Phleum paniculatum, Veronica didyma, Bromus japonicus, Aegilops tauschii, Phalaris arundinacea, Amaranthus retroflexus, Chenopodiaceae, Commelina communis, Sonchus arvensis, Convolvulus arvensis, Cirsium setosum, Solanumnigrum, Acalypha australis, Digitaria sanguinalis, Echinochloa crusgalli, Setaria viridis, Setaria glauca, Leptochloa chinensis, Monochoria vaginalis, Sagittaria trifolia, Scirpus juncoides, Cyperus rotundus, Cyperus iria, Cyperus difformis, Fimbristylis, Portulaca oleracea, Xanthium sibiricum, Pharbitis nil, Conyza Canadensis, etc.) and major crop seeds (wheat, corn, rice, soybean, cotton, oilseed rape, millet, sorghum, potato, sesame, ricinus, etc.) were placed in plastic pots filled with soil, then covered with 0.5-2 cm of soil, allowed to grow in a good greenhouse environment. The test plants were treated on the day of sowing. The tested compounds of the present invention were respectively dissolved in acetone, then added with Tween 80, diluted with a certain amount of water to obtain a solution of a certain concentration, and sprayed by a spray tower onto the plants. After the application, the plants were cultured for 2 weeks in the greenhouse, and then the experimental results of the weeding were recorded. The doses of the used compounds were 3, 6, 12, 24, 48 g ai./mu (1 mu=1/15 ha), and the averages were obtained from three replicates.

[8] = test system: cotton; experiment: Pre-emergence stage, crop damage; conditions: 2 weeks
From the text: as §1, §2, §4

[9] = test system: peanut; experiment: Pre-emergence stage, crop damage; conditions: 48 g a.i./mu, 2 weeks
From the text: as §1, §2, §4

[10] = test system: rice; experiment: Pre-emergence stage, crop damage; conditions: 2 weeks
From the text: as §1, §2, §4

[11] = test system: soy bean; experiment: Pre-emergence stage, crop damage; conditions: 2 weeks
From the text: as §1, §2, §4

[12] = test system: wheat; experiment: Pre-emergence stage, crop damage; conditions: 2 weeks
From the text: as §1, §2, §4

[13] = test system: Descurainia sophia; experiment: Weeding effect in pre-emergence stage; conditions: 2 weeks
From the text: as §1, §2, §4

[14] = test system: Echinochloa crusgalli; experiment: Weeding effect in pre-emergence stage; conditions: 2 weeks
From the text: as §1, §2, §4

[15] = test system: Leptochloa chinensis; experiment: Weeding effect in pre-emergence stage; conditions: 2 weeks
From the text: as §1, §2, §4

[16] = test system: Lolium perenne; experiment: Weeding effect in pre-emergence stage; conditions: 2 weeks
From the text: as §1, §2, §4

[17] = test system: Veronica didyma; experiment: Weeding effect in pre-emergence stage; conditions: 2 weeks
From the text: as §1, §2, §4

[18] = test system: weeds; experiment: Activity test of the compositions, soil sealing treatment; conditions: read-out: Control effect (%) of B applied alone (B)
Outline: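 Pre-emergence soil spray at 450 kg/ha, 0.3 MPa, applied 72 h after sowing pre-germinated seeds, 20 seeds per pot, 4 pots, 4 repeats; actives in acetone diluted with 0.10% Tween-80. Greenhouse, 20 to 30° C; surviving weed fresh weight measured 21 days after treatment.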

[19] = test system: Echinochloa crusgalli, Scirpus juncoides, Bidens tripartita L., Sagittaria trifolia; experiment: Tests on resistance of the collected weeds to pyrazosulfuron-ethyl; conditions: regular doses; weed seeds collected from Heilongjiang Province of China
From the text: Note: The seeds of Echinochloa crusgalli, Scirpus juncoides and Bidens tripartita L., and Sagittaria trifolia were collected from Heilongjiang Province of China.

## CC1(C)CON(Cc2ccc(Cl)cc2Cl)C1=O [Control compound A, bixlozone]
[1]
  weeding effect in post-emergence stage, activity level (growth control rate): 4 (Level 4: growth control rate is greater than or equal to 60% and less than 85%)
[2]
  weeding effect in post-emergence stage, activity level (growth control rate): 3 (Level 3: growth control rate is greater than or equal to 40% and less than 60%)
[3]
  weeding effect in post-emergence stage, activity level (growth control rate): 3 (Level 3: growth control rate is greater than or equal to 40% and less than 60%)
[4]
  weeding effect in post-emergence stage, activity level (growth control rate): 2 (Level 2: growth control rate is greater than or equal to 20% and less than 40%)
[5]
  plant damage level (growth control rate) on crop, post-emergence stage: 2 (Level 2: growth control rate is greater than or equal to 20% and less than 40%)
[6]
  plant damage level (growth control rate) on crop, post-emergence stage: 3 (Level 3: growth control rate is greater than or equal to 40% and less than 60%)
[7]
  plant damage level (growth control rate) on crop, pre-emergence stage: 2 (Level 2: growth control rate is greater than or equal to 15% and less than 30%)
[8]; 12 g a.i./mu
  plant damage level (growth control rate) on crop, pre-emergence stage: 1 (Level 1: growth control rate is greater than 0% and less than 15%)
[8]; 24 g a.i./mu
  plant damage level (growth control rate) on crop, pre-emergence stage: 2 (Level 2: growth control rate is greater than or equal to 15% and less than 30%)
[9]
  plant damage level (growth control rate) on crop, pre-emergence stage: 1 (Level 1: growth control rate is greater than 0% and less than 15%)
[10]; 6 g a.i./mu
  plant damage level (growth control rate) on crop, pre-emergence stage: 1 (Level 1: growth control rate is greater than 0% and less than 15%)
[10]; 12 g a.i./mu
  plant damage level (growth control rate) on crop, pre-emergence stage: 2 (Level 2: growth control rate is greater than or equal to 15% and less than 30%)
[10]; 24 g a.i./mu
  plant damage level (growth control rate) on crop, pre-emergence stage: 4 (Level 4: growth control rate is greater than or equal to 40% and less than 50%)
[11]; 24 g a.i./mu
  plant damage level (growth control rate) on crop, pre-emergence stage: 1 (Level 1: growth control rate is greater than 0% and less than 15%)
[11]; 48 g a.i./mu
  plant damage level (growth control rate) on crop, pre-emergence stage: 2 (Level 2: growth control rate is greater than or equal to 15% and less than 30%)
[12]; 6 g a.i./mu
  plant damage level (growth control rate) on crop, pre-emergence stage: 1 (Level 1: growth control rate is greater than 0% and less than 15%)
[12]; 12 g a.i./mu
  plant damage level (growth control rate) on crop, pre-emergence stage: 1 (Level 1: growth control rate is greater than 0% and less than 15%)
[12]; 24 g a.i./mu
  plant damage level (growth control rate) on crop, pre-emergence stage: 2 (Level 2: growth control rate is greater than or equal to 15% and less than 30%)
[13]; 3 g a.i./mu
  weeding effect in pre-emergence stage, activity level (growth control rate): 4 (Level 4: growth control rate is greater than or equal to 40% and less than 50%)
[13]; 6 g a.i./mu
  weeding effect in pre-emergence stage, activity level (growth control rate): 4 (Level 4: growth control rate is greater than or equal to 40% and less than 50%)
[13]; 12 g a.i./mu
  weeding effect in pre-emergence stage, activity level (growth control rate): 9
[13]; 24 g a.i./mu
  weeding effect in pre-emergence stage, activity level (growth control rate): 9
[14]; 3 g a.i./mu
  weeding effect in pre-emergence stage, activity level (growth control rate): 7 (Level 7: growth control rate is greater than or equal to 70% and less than 80%)
[14]; 6 g a.i./mu
  weeding effect in pre-emergence stage, activity level (growth control rate): 9
[14]; 12 g a.i./mu
  weeding effect in pre-emergence stage, activity level (growth control rate): 9
[14]; 24 g a.i./mu
  weeding effect in pre-emergence stage, activity level (growth control rate): 9
[15]; 3 g a.i./mu
  weeding effect in pre-emergence stage, activity level (growth control rate): 6 (Level 6: growth control rate is greater than or equal to 60% and less than 70%)
[15]; 6 g a.i./mu
  weeding effect in pre-emergence stage, activity level (growth control rate): 9
[15]; 12 g a.i./mu
  weeding effect in pre-emergence stage, activity level (growth control rate): 9
[15]; 24 g a.i./mu
  weeding effect in pre-emergence stage, activity level (growth control rate): 9
[16]; 6 g a.i./mu
  weeding effect in pre-emergence stage, activity level (growth control rate): 2 (Level 2: growth control rate is greater than or equal to 15% and less than 30%)
[16]; 24 g a.i./mu
  weeding effect in pre-emergence stage, activity level (growth control rate): 9
[17]; 6 g a.i./mu
  weeding effect in pre-emergence stage, activity level (growth control rate): 8 (Level 8: growth control rate is greater than or equal to 80% and less than 100%)
[17]; 12 g a.i./mu
  weeding effect in pre-emergence stage, activity level (growth control rate): 9
[17]; 24 g a.i./mu
  weeding effect in pre-emergence stage, activity level (growth control rate): 9
[18]; Echinochloa crus-galli, 504 h, Echinochloa crusgalli, soil treatment (S), B at 2 g a.i./mu, 21 days
  pest or weed control at 30 g/ha: 41.3%
[18]; Echinochloa crus-galli, 504 h, Echinochloa crusgalli, soil treatment (S), B at 4 g a.i./mu, 21 days
  pest or weed control at 60 g/ha: 50.3%

## CCOC(=O)c1cnn(C)c1S(=O)(=O)NC(=O)Nc1nc(OC)cc(OC)n1 [pyrazosulfuron-ethyl, reference compound]
[18]; Cyperus difformis, soil (S), B 0.25 g a.i./mu
  pest or weed control at 3.75 g/ha: 44.8%
[18]; Cyperus difformis, soil (S), B 0.5 g a.i./mu
  pest or weed control at 7.5 g/ha: 59.7%
[19]
  response of the collected weeds to pyrazosulfuron-ethyl: resistant
